Key:
[1] = Solubility of NRC-AN-019 drug substance; type: physicochemical
From the text: NRC-AN-019 is a pale yellow to light brown coloured crystalline to amorphous powder. Its molecular formula is C25H17F6N5O and its relative molecular mass is 517.44. […] The drug substance is soluble in dimethyl formamide and dimethyl sulfoxide.

rats = test: Toxicological study, maximum tolerated oral dose in rats; type: in vivo
[2] = tested on: CAL-27 (Tongue squamous cell carcinoma) cell line; test: MTT assay on CAL-27 cell line; type: cell-based; conditions: Homo sapiens, CAL-27, 1.75×10^4 cells/mL, 72 hours
[3] = tested on: PC3M (Prostate Cancer) Cell lines; test: MTT assay on PC3M cell lines; type: cell-based; conditions: Homo sapiens, PC-3M, 0.312×10^5 cells/mL, 72 hours
[4] = Bioavailability study in rats (oral, LCMS of blood); type: in vivo; conditions: wistar albino male rats, fasted overnight, average
From the text: Four rats (wistar albino, male, weighing 120-180 grams) were divided into two sets of study (two rats in each set) and fasted overnight prior to dosing, but were permitted water ad libitum. The sample preparation and subsequent dilution was made as per protocol with a vehicle, followed by the administration of the sample through oral route. Blood samples were collected by puncturing retero-orbital sinus of the anaesthetized rats (with anesthetic ether) at definite intervals of 15, 30, 60, 120, 240, 360, 480 and 720 minutes post administration. The blood collection was done in prefilled heparin centrifugation tubes.
The blood samples collected were subjected for the subsequent centrifugation and followed by analytical procedure with the use of LCMS technique. The areas under the blood drug concentration versus time curves are calculated by the trapezoidal rule. The analysis was done with respect to AUC (area under curve), Cmax (maximum concentration) and Tmax (time of maximum concentration).

## Cc1ccc(NC(=O)c2cc(C(F)(F)F)cc(C(F)(F)F)c2)cc1Nc1nccc(-c2cccnc2)n1 [NRC-AN-019, (3,5-bis-trifluoromethyl)-N-[4-methyl-3-(4-pyridin-3-yl-pyrimidin-2-ylamino)-pheny-1]-benzamide]
[1]; aqueous buffer pH 1.2
  solubility in aqueous buffer of pH 1.2: very slightly soluble
[1]; dimethyl formamide
  solubility in dimethyl formamide: soluble
[1]; dimethyl sulfoxide
  solubility in dimethyl sulfoxide: soluble
[1]; neutral/alkaline aqueous buffers
  solubility in neutral/alkaline aqueous buffers: insoluble
[1]; water
  solubility in water: practically insoluble
rats
  maximum tolerated oral dose: > 5000 mg/kg bodyweight
[2]
  IC50: 1.44 µM
[3]
  IC50: 4.38 µM
[4]; rat
  Cmax: 35.2 ng/mL
  Tmax: 8.7 h
[4]; trapezoidal rule
  AUC: 430.0 ng·h/mL

— patent US9895367B2, “Formulation comprising phenylaminopyrimidine derivative as active agent” (NATCO PHARMA LIMITED, priority 2011, dated 2018)
